Data on two compounds can be found in ChEMBL document CHEMBL1151970, “Cardioprotection with the parrodiene 2,4,6-octatrienal and its potassium salt through activation of the Akt-Bcl-2 survival pathway” (2009).

Molecules are shown by their SMILES. Activity calls are given as the source filed them. No cut-off for these calls is given here.

Assay [1] concerns Heart. The assay is described as follows: Cardioprotective activity in Langendorff perfused Sprague-Dawley rat heart assessed as reduction in number of cardiomycotic apoptic cells at 50 mM preperfused 15 mins before global ischemia challenge for 30 mins followed by 120 mins of reperfusion by TUNEL assay. The class given is functional. Also on record: scale not given: the % may be the effect or the level left.

Assay [2] has as its system Heart. Description: Cardioprotective activity in Langendorff perfused Sprague-Dawley rat heart assessed as recovery of aortic pressure at 50 mM preperfused 15 mins before global ischemia challenge for 30 mins followed by 120 mins of reperfusion. The class given is functional, tissue-based.
The test system of assay [3] is Heart. Description: Cardioprotective activity in Langendorff perfused Sprague-Dawley rat heart assessed as activation of Akt phosphorylation at 50 mM preperfused 15 mins before global ischemia challenge for 30 mins followed by 120 mins of reperfusion. The format is functional, tissue-based.
Assay [4] has as its system Heart. Description: Cardioprotective activity in Langendorff perfused Sprague-Dawley rat heart assessed as recovery of left ventricular developed pressure at 50 mM preperfused 15 mins before global ischemia challenge for 30 mins followed by 120 mins of reperfusion. The format is functional, tissue-based.
Assay [5] has as its system Heart. Description: Cardioprotective activity in Langendorff perfused Sprague-Dawley rat heart assessed as recovery of first derivative of left ventricular developed pressure at 50 mM preperfused 15 mins before global ischemia challenge for 30 mins followed by 120 mins of reperfusion. The class given is functional, tissue-based.
For assay [6], the system named is Heart. Description: Cardioprotective activity in Langendorff perfused Sprague-Dawley rat heart assessed as prevention of cytochrom c release from cytosolic fraction at 50 mM preperfused 15 mins before global ischemia challenge for 30 mins followed by 120 mins of reperfusion by Western blotting. The class given is functional, tissue-based. For orientation: Immunoblotting shows a protein as a band on a membrane.

The subject of assay [7] is Heart. The assay is described as follows: Cardioprotective activity in Langendorff perfused Sprague-Dawley rat heart assessed as down regulation of HO1 at 50 mM preperfused 15 mins before global ischemia challenge for 30 mins followed by 120 mins of reperfusion by Western blotting. The class given is functional, tissue-based.
For assay [8], the system named is Heart. Description: Cardioprotective activity in Langendorff perfused Sprague-Dawley rat heart assessed as reduction in myocardial infarction size at 50 mM preperfused 15 mins before global ischemia challenge for 30 mins followed by 120 mins of reperfusion by triphenyl tetrazolium chloride method. The format is functional. Further details: scale not given: the % may be the effect or the level left.

Assay [9] has as its system Heart. The assay is described as follows: Cardioprotective activity in Langendorff perfused Sprague-Dawley rat heart assessed as reduction of pro-caspase 3 activation in ischemic reperfused myocardium at 50 mM preperfused 15 mins before global ischemia challenge for 30 mins followed by 120 mins of reperfusion by Western blotting. The format is functional, tissue-based.

In assay [10] the test system is Heart. The assay is described as follows: Cardioprotective activity in Langendorff perfused Sprague-Dawley rat heart assessed as reduction of caspase 3 activation at 50 mM preperfused 15 mins before global ischemia challenge for 30 mins followed by 120 mins of reperfusion by Western blotting. The class given is functional, tissue-based.
In assay [11] the test system is Heart. The assay is described as follows: Cardioprotective activity in Langendorff perfused Sprague-Dawley rat heart assessed as […] of Bcl2 at 50 mM preperfused 15 mins before global ischemia challenge for 30 mins followed by 120 mins of reperfusion by Western blotting. The format is functional, tissue-based.

For `C/C=C/C=C/C=C/C=O`, the Activity in the assay on Heart [1] was found to be 15%; with Heart [8] it was 16%. Also, the result in the assay with Heart [2], in the assay with Heart [3], in the assay with Heart [4], in the assay with Heart [5], with Heart [6] and with Heart [7] was Active. Also, the result in the assay on Heart [9], in the assay with Heart [10] and in the assay on Heart [11] was Active.

Regarding `C/C=C/C=C/C=C/C(=O)[O-].[K+]`, the Activity in the assay with Heart [1] was 13.6%; in the assay with Heart [8], 15%. Also, the outcome in the assay with Heart [2], in the assay with Heart [3], with Heart [4], in the assay on Heart [5], in the assay on Heart [6] and in the assay on Heart [7] was Active. For the same compound, the outcome in the assay with Heart [9], in the assay with Heart [10] and in the assay on Heart [11] was Active.
